pEC50, pIC50: −log10 of the molar value.
Key:
Protein O-GlcNAcase [1] = target: T1, Protein O-GlcNAcase (Homo sapiens, UniProt O60502); assay: Inhibition of human His-tagged OGA using fluorescein mono-beta-D-([…]) glucopyranoside as substrate after 60 mins by fluorescence assay
T1 sequence (O60502 whole entry): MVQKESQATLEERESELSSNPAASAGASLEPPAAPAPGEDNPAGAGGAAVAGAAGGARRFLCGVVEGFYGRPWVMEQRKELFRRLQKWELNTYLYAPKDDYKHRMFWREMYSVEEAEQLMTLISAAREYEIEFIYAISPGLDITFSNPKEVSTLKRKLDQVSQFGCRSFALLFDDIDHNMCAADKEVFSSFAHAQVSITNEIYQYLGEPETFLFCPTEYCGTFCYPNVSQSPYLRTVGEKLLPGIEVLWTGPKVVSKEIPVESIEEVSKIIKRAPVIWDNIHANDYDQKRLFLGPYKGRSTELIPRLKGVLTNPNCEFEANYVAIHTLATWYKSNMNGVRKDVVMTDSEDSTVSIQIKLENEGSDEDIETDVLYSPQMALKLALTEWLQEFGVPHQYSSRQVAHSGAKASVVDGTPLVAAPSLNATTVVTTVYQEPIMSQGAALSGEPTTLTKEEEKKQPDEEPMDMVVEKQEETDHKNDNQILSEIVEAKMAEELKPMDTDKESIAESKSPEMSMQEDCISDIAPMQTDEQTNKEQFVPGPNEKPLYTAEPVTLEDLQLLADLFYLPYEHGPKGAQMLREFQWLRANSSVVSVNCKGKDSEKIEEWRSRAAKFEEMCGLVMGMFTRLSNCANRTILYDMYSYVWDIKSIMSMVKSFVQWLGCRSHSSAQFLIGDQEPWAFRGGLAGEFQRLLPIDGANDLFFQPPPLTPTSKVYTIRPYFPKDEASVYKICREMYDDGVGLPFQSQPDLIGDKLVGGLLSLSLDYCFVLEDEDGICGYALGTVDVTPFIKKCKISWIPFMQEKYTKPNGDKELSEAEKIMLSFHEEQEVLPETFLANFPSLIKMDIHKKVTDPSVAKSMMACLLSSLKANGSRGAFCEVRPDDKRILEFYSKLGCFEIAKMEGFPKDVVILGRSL

Protein O-GlcNAcase [2] = target: T2, Protein O-GlcNAcase (Rattus norvegicus, UniProt Q8VIJ5); assay: Inhibition of OGA in rat B35 cells after 16 hrs; format: cell-based
T2 sequence (Q8VIJ5 whole entry): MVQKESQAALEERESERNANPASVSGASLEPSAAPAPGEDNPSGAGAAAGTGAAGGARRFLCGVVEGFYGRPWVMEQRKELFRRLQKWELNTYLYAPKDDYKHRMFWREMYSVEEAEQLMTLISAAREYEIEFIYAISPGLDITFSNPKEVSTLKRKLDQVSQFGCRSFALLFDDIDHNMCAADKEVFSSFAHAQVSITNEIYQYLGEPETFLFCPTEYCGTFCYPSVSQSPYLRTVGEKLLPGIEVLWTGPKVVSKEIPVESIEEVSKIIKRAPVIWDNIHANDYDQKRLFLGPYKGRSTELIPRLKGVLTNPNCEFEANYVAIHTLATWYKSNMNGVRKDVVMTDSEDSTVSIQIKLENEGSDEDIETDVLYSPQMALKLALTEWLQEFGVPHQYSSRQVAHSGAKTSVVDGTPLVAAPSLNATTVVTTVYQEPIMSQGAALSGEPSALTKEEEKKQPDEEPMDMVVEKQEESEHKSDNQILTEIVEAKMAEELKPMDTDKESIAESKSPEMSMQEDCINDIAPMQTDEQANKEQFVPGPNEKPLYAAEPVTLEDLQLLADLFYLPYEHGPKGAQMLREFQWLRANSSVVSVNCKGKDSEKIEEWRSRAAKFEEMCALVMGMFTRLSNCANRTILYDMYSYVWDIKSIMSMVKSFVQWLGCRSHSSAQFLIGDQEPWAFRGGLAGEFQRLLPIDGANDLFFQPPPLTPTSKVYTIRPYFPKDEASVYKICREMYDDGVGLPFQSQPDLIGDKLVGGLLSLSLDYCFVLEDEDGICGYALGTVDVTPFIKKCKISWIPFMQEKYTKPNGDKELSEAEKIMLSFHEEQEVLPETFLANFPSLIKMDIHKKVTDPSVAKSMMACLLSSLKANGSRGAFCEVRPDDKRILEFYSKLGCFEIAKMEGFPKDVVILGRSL

COC(=O)Nc1ncc(CN2CCC(c3ccccc3)CC2)s1
pIC50 (Protein O-GlcNAcase [1]): 6.00
pEC50 (Protein O-GlcNAcase [2]): 5.00

CC(=O)Nc1ncc(CN2CCC(c3ccccc3)CC2)s1
pIC50 (Protein O-GlcNAcase [1]): > 6.70
pEC50 (Protein O-GlcNAcase [2]): 6.70

CC(=O)Nc1ncc(CN2CCC(c3cccc(C)c3)CC2)s1
pIC50 (Protein O-GlcNAcase [1]): > 6.70
pEC50 (Protein O-GlcNAcase [2]): > 6.70

CC(=O)Nc1ncc(CN2CCC(F)(c3ccccc3)CC2)s1
pIC50 (Protein O-GlcNAcase [1]): 6.00
pEC50 (Protein O-GlcNAcase [2]): 6.00

From ChEMBL document CHEMBL3352179, “Inhibition of O-GlcNAcase (OGA): A Potential Therapeutic Target to Treat Alzheimer's Disease” (ACS Med Chem Lett, 2014)
